# Reference: patent US20240058324A1, “COMPOSITION FOR PREVENTION AND TREATING DEMENTIA THROUGH THE COMBINATION OF PDE5 INHIBITORS AND GLUCOCORTICOID RECEPTOR ANTAGONISTS” (ARIBIO CO., LTD., priority 2021, published 2024)
# Columns and labels:
# [1] = system: Aβ42; experiment: Amyloid Beta 42 Human ELISA, amount of Aβ42 in RA-differentiated SH-SY5Y cells treated with Aβ1-42 oligomer; type: cell-based; details: 24 h
# Protocol: To determine the amount of change in amyloid beta, […] cells were dispensed into T-25 flask.
# For cell adhesion and stabilization, cells were incubated for 24 hours in DMEM/F12 Complete Medium (HyClone) containing 10% FBS (HyClone) and 1% P/S (HyClone) at 37° C. under 5% CO2 condition in a CO2 incubator (Thermo Fisher Scientific Forma).
# After 24 hours of cell dispensing, the cell culture medium is removed for neuron-like differentiation, and replaced with DMEM/F12 differentiation media containing 1% FBS (HyClone), 1% P/S (HyClone), 10 μM all-trans-retinoic acid (RA; Sigma--Aldrich, St. Louis, MO, USA).
# On the third day of differentiation, the medium was replaced with a new DMEM/F12 differentiation medium. On the sixth day of differentiation, the medium of the untreated control group was replaced with a new DMEM/F12 differentiation medium and the medium of the sample treatment group was replaced with a various conditions by adding a new DMEM/F12 differentiation medium under various conditions.
# Human Aβ1-42 (Abeam, Cambridge, MA, USA) was added upto 10 μM to DMEM/F12 Complete Medium (HyClone) containing 1% FBS (HyClone) and 1% P/S (HyClone) to form Aβ1-42 oligomer and left for 3 hours in a CO2 incubator (Thermo Fisher Scientific Forma) under 37° C. and 5% CO2 conditions to form Aβ1-42 oligomer.
# In order to confirm the Aβ 1-42 change, the existing cell culture medium was removed from the RA-differentiated SH-SY5Y neuron-like cells, replaced with DMEM/F12 Complete Medium (HyClone) containing Aβ1-42 oligomer ([…] Fisher Scientific Forma) at 37° C. under 5% CO2 conditions to induce Aβ1-42 oligomer-induced cell damage.
# In order to measure the amount of Aβ42 (pg/mL) in the cell, the cells were recovered and treated with the cell lysis buffer.
# Thereafter, after centrifugation at 14,000 rpm 4° C. for 10 minutes, the supernatant was transferred to recover the protein. The amount of protein was quantified using the Pierce™ BCA Protein Assay Kit (Thermo Fisher Scientific). Then, the amount of Aβ42 in cells was measured using a Human Aβ42 ELISA Kit (Invitrogen).
# [2] = system: IL-1β; experiment: Real time RT-qPCR of pro-inflammatory cytokine IL-1β in LPS-treated IMG microglia cells; type: cell-based, mouse; details: LPS 100 ng/ml
# Protocol: (§1) The IMG cells, a mouse microglia cell line used in the experiments, were cultured, and maintained in DMEM complete medium (HyClone) containing 10% fetal bovine serum (FBS; Australian Orgin, HyClone, Logan, UT, USA) and 1% penicillin/streptomycin (P/S; HyClone) at 37° C. with 5% CO2 in a humidified CO2 incubator (311-TIF, Thermo Fisher Scientific Forma, MA, USA). Total 2×10^5 cells were seeded in each well of the 6-well plate and they were incubated for 24 h in the humidified CO2 incubator as mentioned above. Further, 100 ng/ml of LPS and the drugs, AR1001 2 μM and GR modulator (CORT-108297) 6, 12, 24, 36, 48 μM were treated individually or in combination.
# (§2) The cells were scraped using a cell scraper, and 2 mL of the culture solution was collected in a 15 mL conical tube, It was centrifuged at 3,000 RPM for 5 min and the supernatant (culture solution) was discarded. The pellet was resuspended in 1 mL of Trizol and it was transferred to 1.5 mL microfuge tube. Further, 0.2 mL of chloroform was added and it was vortexed for 1 min. The microfuge tube was kept in a stand for 2 min at room temperature. After centrifugation at 12,000×g for 10 min at 4° C., the supernatant (approx 500 μL) separated in a fresh microfuge tube. Equal volume of isopropanol was added to the supernatant and mixed the solution well. It was put in the microfuge tube stand for 10 min at room temperature and thereafter, centrifuged at 12,000×g for 10 min at 4° C. The supernatant was discarded and the pellet was washed twice with 75% ethanol. The RNA pellet was dried and dissolved in 10 μL DEPC treated water. After quantification of the RNA, it was converted to cDNA following the PrimeScript™ II 1st strand cDNA Synthesis Kit (Takara) protocol.
# (§3) The sample cDNAs were amplified with gene specific primers and SYBR green PCR master mix (ThermoFisher) in the model Quant Studio 5 Thermal cycler (Applied biosystems). The amplification conditions were as follows—polymerase activation at 50° C. for 2 min, predenaturation preceding at 95° C. for 10 min, total 40 cycles of denaturation at 95° C. for 15 sec, annealing at 60° C. for 30 sec and extension at 72° C. for 30 sec. The specific primer sequences are mentioned in Table-1.
# [3] = system: TNF-α; experiment: Real time RT-qPCR of pro-inflammatory cytokine TNF-α in LPS-treated IMG microglia cells; type: cell-based, mouse; details: LPS 100 ng/ml
# Protocol: as §1, §2, §3
# [4] = CORT-108297 0.1 μM alone, SH-SY5Y, Aβ 10 μM
# [5] = CORT-108297 0.3 μM alone, SH-SY5Y, Aβ 10 μM
# [6] = CORT-108297 0.6 μM alone, SH-SY5Y, Aβ 10 μM
# [7] = CORT-108297 1.2 μM alone, SH-SY5Y, Aβ 10 μM
# [8] = CORT-108297 1.8 μM alone, SH-SY5Y, Aβ 10 μM
# [9] = CORT-108297 2.4 μM alone, SH-SY5Y, Aβ 10 μM
# [10] = CORT-108297 3.0 μM alone, SH-SY5Y, Aβ 10 μM
smiles,measurement,setting,value
"CCCOc1ccc(S(=O)(=O)N2CCN(CCO)CC2)cc1-c1nc2c(CCC)cn(CC)c2c(=O)[nH]1 [AR1001, mirodenafil]",Aβ42 concentration Average concentration,"[1]; AR1001 0.1 μM alone, SH-SY5Y neuron-like cells, Aβ1-42 oligomer 10 μM",46.45 pg/mL
same,Aβ42 Reduction rate Average reduction rate,"[1]; AR1001 0.1 μM alone, SH-SY5Y, Aβ 10 μM",1.77%
same,IL1β Reduction (%),[2]; AR1001 2 μM alone,4.70%
same,TNFα Reduction (%),[3]; AR1001 2 μM alone,8.58%
CCOC[C@]12Cc3cnn(-c4ccc(F)cc4)c3C=C1CCN(S(=O)(=O)c1ccc(C(F)(F)F)cc1)C2 [CORT-108297],Aβ42 Reduction rate Average reduction rate,[1]; [4],4.26%
same,Aβ42 concentration Average concentration,[1]; [4],45.40 pg/mL
same,Aβ42 Reduction rate Average reduction rate,[1]; [5],4.24%
same,Aβ42 concentration Average concentration,[1]; [5],45.40 pg/mL
same,Aβ42 Reduction rate Average reduction rate,[1]; [6],6.88%
same,Aβ42 concentration Average concentration,[1]; [6],44.29 pg/mL
same,Aβ42 Reduction rate Average reduction rate,[1]; [7],9.34%
same,Aβ42 concentration Average concentration,[1]; [7],43.25 pg/mL
same,Aβ42 Reduction rate Average reduction rate,[1]; [8],11.97%
same,Aβ42 concentration Average concentration,[1]; [8],42.14 pg/mL
same,Aβ42 Reduction rate Average reduction rate,[1]; [9],17.91%
same,Aβ42 concentration Average concentration,[1]; [9],39.64 pg/mL
same,Aβ42 Reduction rate Average reduction rate,[1]; [10],31.34%
same,Aβ42 concentration Average concentration,[1]; [10],33.97 pg/mL
same,IL1β Reduction (%),[2]; CORT-108297 6 μM alone,7.02%
same,IL1β Reduction (%),[2]; CORT-108297 12 μM alone,8.38%
same,IL1β Reduction (%),[2]; CORT-108297 24 μM alone,17.88%
same,IL1β Reduction (%),[2]; CORT-108297 36 μM alone,35.86%
same,IL1β Reduction (%),[2]; CORT-108297 48 μM alone,57.37%
same,TNFα Reduction (%),[3]; CORT-108297 6 μM alone,9.41%
same,TNFα Reduction (%),[3]; CORT-108297 12 μM alone,15.52%
same,TNFα Reduction (%),[3]; CORT-108297 24 μM alone,23.86%
same,TNFα Reduction (%),[3]; CORT-108297 36 μM alone,37.30%
same,TNFα Reduction (%),[3]; CORT-108297 48 μM alone,52.51%
